Assay results taken from ChEMBL document CHEMBL5380822, “Design, Synthesis, and Biological Evaluation of Novel Hybrids Containing Dihydrochalcone as Tyrosinase Inhibitors to Treat Skin Hyperpigmentation” (J Med Chem, 2023).
Calls of active or inactive are those of the source. No cut-off for these calls is given here.

Tests used:
[1] = biological target: T1, Mushroom tyrosinase (Agaricus bisporus, UniProt O42713+Q00024+C7FF04+C7FF05); test: Inhibition of Agaricus bisporus tyrosinase using L-tyrosine as substrate preincubated with compound for 20 mins followed by substrate addition measured after 10 mins by absorbance based assay
[2] = biological target: T1, Mushroom tyrosinase; test: Inhibition of Agaricus bisporus tyrosinase using L-dopa as substrate preincubated with compound for 20 mins followed by substrate addition measured after 5 mins by absorbance based assay
[3] = test system: A-375; test: Cytotoxicity against human A-375 cells at 50 uM incubated for 72 hrs by MTT assay; assay type: toxicity, cell-based; conditions: a-375, 72 h
[4] = biological target: T2, Tyrosinase (Homo sapiens) (UniProt P14679); test: Inhibition of TYR in alpha-MSH-stimulated human A-375 cells using L-Dopa as substrate at 20 uM incubated for 24 hrs by absorbance based assay; assay type: cell-based
T2 sequence (whole entry): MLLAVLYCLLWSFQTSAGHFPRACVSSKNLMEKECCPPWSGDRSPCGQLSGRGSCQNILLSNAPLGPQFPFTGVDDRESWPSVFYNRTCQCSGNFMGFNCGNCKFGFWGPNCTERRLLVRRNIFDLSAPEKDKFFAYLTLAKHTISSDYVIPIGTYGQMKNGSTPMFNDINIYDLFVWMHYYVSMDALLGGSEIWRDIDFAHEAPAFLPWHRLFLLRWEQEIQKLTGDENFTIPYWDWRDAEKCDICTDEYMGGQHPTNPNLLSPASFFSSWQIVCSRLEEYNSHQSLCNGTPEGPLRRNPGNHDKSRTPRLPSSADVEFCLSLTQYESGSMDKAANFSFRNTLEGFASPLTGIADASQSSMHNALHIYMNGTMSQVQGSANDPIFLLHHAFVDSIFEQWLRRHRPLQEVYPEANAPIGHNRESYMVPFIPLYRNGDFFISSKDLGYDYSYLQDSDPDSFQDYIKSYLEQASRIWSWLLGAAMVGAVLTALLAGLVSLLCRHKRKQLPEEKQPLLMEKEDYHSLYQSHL

[5] = test system: B16-F10; test: Cytotoxicity against mouse B16-F10 cells at 50 uM incubated for 72 hrs by MTT assay; assay type: toxicity, cell-based; conditions: b16-f10, 72 h
[6] = biological target: T3, Tyrosinase (Mus musculus) (UniProt P11344); test: Inhibition of TYR in alpha-MSH-stimulated mouse B16-F10 cells using L-Dopa as substrate incubated for 24 hrs by absorbance based assay; assay type: cell-based; conditions: dose 5-25 µM
T3 sequence (whole entry): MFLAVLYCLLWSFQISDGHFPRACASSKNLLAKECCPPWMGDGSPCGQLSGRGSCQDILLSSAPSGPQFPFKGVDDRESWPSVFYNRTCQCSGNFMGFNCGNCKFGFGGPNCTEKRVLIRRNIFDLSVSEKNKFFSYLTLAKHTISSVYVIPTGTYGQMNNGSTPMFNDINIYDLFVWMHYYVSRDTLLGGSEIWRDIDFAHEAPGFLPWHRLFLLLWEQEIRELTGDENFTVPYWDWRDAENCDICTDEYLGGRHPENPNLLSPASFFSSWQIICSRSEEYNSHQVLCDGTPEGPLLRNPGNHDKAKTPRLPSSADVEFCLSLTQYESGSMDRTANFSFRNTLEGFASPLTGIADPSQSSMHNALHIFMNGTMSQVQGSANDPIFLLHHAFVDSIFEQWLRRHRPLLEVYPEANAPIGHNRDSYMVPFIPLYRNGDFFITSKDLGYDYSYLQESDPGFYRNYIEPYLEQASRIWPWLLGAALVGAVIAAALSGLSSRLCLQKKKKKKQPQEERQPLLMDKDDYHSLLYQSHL

[7] = test system: B16-F10; test: Anti-melanogenic activity against alpha-MSH-stimulated mouse B16-F10 cells assessed as decrease in melanin content incubated for 24 hrs by absorbance based assay; assay type: functional, cell-based; conditions: dose 5-25 µM
[8] = test system: A-375; test: Anti-melanogenic activity against alpha-MSH-stimulated human A-375 cells assessed as decrease in melanin content at 20 uM incubated for 24 hrs by absorbance based assay; assay type: functional, cell-based

Compound | IC50 [1] [µM] | IC50 [2] [µM] | further results
O=C(CCc1ccc(O)cc1)c1ccc(O)cc1O [DAVIDIGENIN] | > 10 | > 10 | 
COc1cccc(CCC(=O)c2ccc(O)cc2O)c1 | > 10 | > 10 | 
O=C(CCc1ccc(O)cc1O)c1ccc(Br)cc1 | 0.11 | 0.184 | 
O=C(CCc1ccc(O)cc1O)c1ccc(O)cc1 | 0.072 | 0.212 | 
COc1ccc(CCC(=O)c2ccc(O)cc2O)c(OC)c1OC | > 10 | > 10 | 
COc1ccc(C(=O)CCc2ccc(O)cc2O)cc1 | 0.089 | 0.171 | 
O=C(CCc1ccc(O)c(O)c1)c1ccc(O)cc1O | > 10 | > 10 | 
COc1cc(C(=O)CCc2ccc(O)cc2O)ccc1O | 0.054 | 0.165 | Activity [3]: Non-Toxic; inhibition [4]: Active; Activity [5]: Non-Toxic; inhibition [6]: Dose-Dependent Effect; Activity [7]: Dose-Dependent Effect; Activity [8]: Active
Cc1ccccc1CCC(=O)c1ccc(O)cc1O | > 10 | > 10 | 
COc1ccc(C(=O)CCc2ccc(O)cc2O)c(O)c1 | 0.069 | 0.183 | 
COc1ccc(CCC(=O)c2ccc(O)cc2O)c(OC)c1 | > 10 | > 10 | 
O=C(CCc1cccc(O)c1)c1ccc(O)cc1O | > 10 | > 10 | 
Cc1cccc(C(=O)CCc2ccc(O)cc2O)c1 | 0.133 | 0.189 | 
COc1ccc(C(=O)CCc2ccccc2O)c(O)c1 | > 10 | > 10 | 
COc1ccc(CCC(=O)c2ccc(O)cc2O)cc1OC | > 10 | > 10 | 
COc1ccc(C(=O)CCc2ccc(O)cc2O)cc1O | 0.069 | 0.245 | 
COc1ccc(C(=O)CCc2ccc(OC)cc2OC)cc1 | > 10 | > 10 | 
